Legend:
trypsin [1] = biological target: T1, trypsin (Bos taurus, UniProt P00760); assay: Trypsin enzymatic assay; format: biochemical
T1 construct: gene PRSS1
T1 sequence (P00760 24-246): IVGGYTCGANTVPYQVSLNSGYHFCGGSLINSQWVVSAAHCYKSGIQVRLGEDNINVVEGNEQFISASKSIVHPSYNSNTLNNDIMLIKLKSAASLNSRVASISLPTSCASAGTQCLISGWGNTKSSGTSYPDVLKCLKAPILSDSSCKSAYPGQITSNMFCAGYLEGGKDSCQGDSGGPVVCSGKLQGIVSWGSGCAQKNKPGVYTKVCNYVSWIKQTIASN
Description: Assays were done as described earlier with slight modification. Briefly, normalized proteolytic activity of trypsin (2.3 pM) toward tosyl-GPR-AMC substrate (5 μM) was measured for 2 h after pre-incubation of the peptides with protease for 1 h at room temperature. The data were plotted and fitted using KaleidaGraph v3.6 software. Apparent […] (Ki^app) was determined from at least three independent measurements.

[2] = SGF with pepsin, pH 1.2, 37 °C, peptide 0.3 mg/ml, after several days; LC/MS, A214nm peak area vs internal standard
Description: Peptides were incubated at a concentration of 0.3 mg/ml in simulated gastric fluid at 37 °C for the indicated times. To prepare simulated gastric fluid, 2 g of sodium chloride, 43 mg of sodium thaurocholate, 16 mg of lecithin and 100 mg of pepsin were dissolved in 1 L of Milli-Q water (18.2 MΩ.cm^−1) and adjusted to pH 1.2 with 37% hydrochloric acid. At the indicated time points, 10 μl (3 μg) aliquots were removed from the reaction, quenched with 0.25 M NaOH and then mixed with 2.6 μg of the internal standard. Samples were immediately analyzed by analytical LC/MS (Agilent 1200 series) and the area under the A214nm peak was quantified.

trypsin [3] = biological target: trypsin (UniProt P00760); assay: enzyme inhibition assay (trypsin proteolytic activity on a fluorogenic substrate); apparent; trypsin 2.3 pM, tosyl-GPR-AMC substrate 5 uM, activity measured for 2 h after pre-incubation of the peptides with protease for 1 h at room temperature

Ki (trypsin [3]) [pM] | Compound | Ki (trypsin [1]) [pM] | remaining in simulated gastric fluid [2] [%]
 | CC[C@H](C)[C@@H]1NC(=O)[C@H](CCCNC(=N)N)NC(=O)[C@@H]2CCCN2C(=O)[C@@H](NC(=O)CNC(=O)[C@H](CO)NC(=O)CN)CSSC[C@@H]2NC(=O)CNC(=O)[C@H](C)NC(=O)[C@H](CC(C)C)NC(=O)[C@@H]3CSSC[C@@H](C(=O)NCC(=O)NCC(=O)N[C@@H](CC(N)=O)C(=O)N[C@@H](CO)C(=O)O)NC(=O)[C@H](Cc4ccccc4)NC(=O)CNC(=O)[C@H](CC(N)=O)NC(=O)[C@@H]4CCCN4C(=O)CNC(=O)[C@H](CSSC[C@H](NC(=O)[C@H](CCCNC(=N)N)NC(=O)[C@H](CCSC)NC(=O)[C@H](CC(C)C)NC1=O)C(=O)N[C@@H](CCCCN)C(=O)N[C@@H](CCC(N)=O)C(=O)N[C@@H](CC(=O)O)C(=O)N[C@@H](CO)C(=O)N[C@@H](CC(=O)O)C(=O)N3)NC(=O)[C@H](C(C)C)NC2=O [rEETI-II] | 160 ± 10 | 50
710 | Alexa488-labeled recombinant EETI-II (peptide) |  | 
160 | recombinant EETI-II (Ecballium elaterium trypsin inhibitor II) (peptide) |  | 

— publication PMC5062073, “Cellular uptake of a cystine-knot peptide and modulation of its intracellular trafficking” (Scientific Reports, 2016)
